The values below come from patent US20240335575A1, “METHOD AND APPARATUS FOR INACTIVATING PATHOGENS IN UNITS OF WHOLE BLOOD USING SUPERPARAMAGNETIC NANOPARTICLES COATED WITH CHEMILUMINESCENCE REAGENTS AND BROAD-SPECTRUM ANTI-VIRAL THERAPEUTICS” (Aphios Corporation, priority 2021, published 2024).

Structures are written as SMILES.

Data set [1] deals with BVDV. The data set is described as follows: BVDV inactivation in spiked RBCC by doxorubicin alone. The class given is cell-based, Bovine Viral Diarrhea Virus. Conditions: for Unwashed Titer / Washed Titer: 37° C. 2 hours in the dark; for Unwashed Titer: doxorubicin Low = 0.53 mM, High = 1.6 mM; for Combined VRF: treatment plus washing, compared to mean unwashed RBC controls; for Unwashed VRF: compared to mean titer of untreated RBC controls; for Washed VRF: compared to mean titer of washed untreated RBC controls. The method, then:
Two levels of doxorubicin (low and high), RBCC, virus and DMEM (—Ca^++, —Mg^++) were prepared to all contain equivalent titers of BVDV calculated to be 6.23 log10 TCID50/mL (logs) based on the titer of the original virus stock.
The components were mixed and incubated at 37° C. for 2 hours in the dark followed by titration of unwashed and washed samples as previously described. Washing rows of wells with dilutions 1 and 2 was performed the next day. Final CPE were read 2 weeks post-infection. Cells were also monitored for cytotoxicity from the treatment components other than the virus 1 day and 2 weeks post-infection as in previous experiments.
The various combinations tested, the titers obtained and the calculated VRFs compared to the mean titer of the untreated RBC controls are listed in Table 4. There was no hemolysis or clumping for any of the samples at the end of the treatment period.

The subject of data set [2] is Human Adenovirus-2 (HAd-2). Kind of data set: Earlier inactivation of HAd-2 in unwashed RBCC samples. The class given is cell-based. Conditions: doxorubicin alone, observed previously.
In data set [3] the test system is BVDV. The data set is described as follows: BVDV inactivation in spiked human RBCC by hypericin with luciferase system. The class given is cell-based, Bovine Viral Diarrhea Virus. The conditions noted are these: for Unwashed Titer / Washed Titer: RT 2 hours in the dark; for Unwashed Titer / Unwashed VRF: unwashed samples; for Unwashed Titer: doses per sample label; for Washed Titer / Washed VRF: washed samples; for Combined VRF: treatment plus washing, compared to unwashed untreated RBC control; for Unwashed VRF: compared to titer of untreated RBC control; for Washed VRF: compared to washed untreated RBC control. The method, then: Ten different combinations of DMEM (—Ca^++, —Mg^++), RBCC, virus, hypericin, Luciferin, ATP and luciferase were prepared to all contain equivalent titers of BVDV calculated to be 6.48 log10TCID50/mL based on the titer of the original virus stock. The concentrations of hypericin tested were 0, 40 and 200 μg/mL. Luciferase was tested at 0, 0.8 and 4.0 μM. Luciferin and ATP were present at 80 and 800 μM respectively when luciferase was present and absent in the absence of luciferase.
The components were mixed and incubated at RT for 2 hours in the dark followed by titration of unwashed and washed samples as previously described. Washing rows of wells with dilutions 1 and 2 was performed 3 days post-infection. Final CPEs were read 10 days post-infection.
The various combinations tested, the titers obtained and the calculated VRFs compared to the titer of the untreated RBC control are listed in Table 2.

The test system of another data set is RBC. The data set is described as follows: Cytotoxicity, interference, RBC morphology and integrity after hypericin treatment. The class given is cell-based. As to the method: Cytotoxicity and interference studies are performed per CPMP/FDA guidelines to calculate the reduction in viral titers due to these factors and exclude them from the calculated reduction factors resulting from the antiviral treatment. The antiviral compounds are removed from the system by washing the erythrocytes. Appropriate controls are kept to determine the contribution of washing to the viral reduction factors.

Consider `COc1cccc2c1C(=O)c1c(O)c3c(c(O)c1C2=O)C[C@@](O)(C(=O)CO)C[C@@H]3O[C@H]1C[C@H](N)[C@H](O)[C@H](C)O1` [Dox-H, Doxorubicin], for which, in the data set on BVDV [1], the “Unwashed Titer” value came out at 3.10 log10 TCID50/mL, the “Washed Titer” value is 3.10 log10 TCID50/mL, the “Combined VRF” value is listed as 2.50 logs and the “Unwashed VRF” value is listed as 2.50 logs. For the same compound, in the data set with BVDV [1], the “Washed VRF” value was −0.19 logs.
`COc1cccc2c1C(=O)c1c(O)c3c(c(O)c1C2=O)C[C@@](O)(C(=O)CO)C[C@@H]3O[C@H]1C[C@H](N)[C@H](O)[C@H](C)O1` [Dox-L, Doxorubicin]: in the data set on BVDV [1], the “Unwashed Titer” value amounted to 3.23 log10 TCID50/mL, the “Washed Titer” value is reported as 3.10 log10 TCID50/mL, the “Combined VRF” value came out at 2.50 logs and the “Unwashed VRF” value amounted to 2.38 logs. In the data set on BVDV [1], the “Washed VRF” value is recorded as −0.19 logs.
`COc1cccc2c1C(=O)c1c(O)c3c(c(O)c1C2=O)C[C@@](O)(C(=O)CO)C[C@@H]3O[C@H]1C[C@H](N)[C@H](O)[C@H](C)O1` [Doxorubicin, (1S,3S)-3-glycoloyl-3,5,12-trihydroxy-10-methoxy-6,11-dioxo-1,2,3,4,6,11-hexahydrotetracen-1-yl 3-amino-2,3,6-trideoxy-α-L-lyxo-hexo-pyranoside]: the “viral inactivation activity against HAd-2 virus” value in data set [2] was “has viral inactivation activity”. The “viral inactivation activity against BVDV” value in the data set with BVDV [1] (doxorubicin treatment alone) is given as “has viral inactivation activity”.
As for `Cc1cc(O)c2c(=O)c3c(O)cc(O)c4c5c(O)cc(O)c6c(=O)c7c(O)cc(C)c8c1c2c(c34)c(c78)c65` [HH-LN, Hypericin], in the data set on BVDV [3], the “Unwashed Titer” value worked out at 3.10 log10TCID50/mL, the “Washed Titer” value is recorded as 2.48 log10TCID50/mL, the “Combined VRF” value was found to be 3.87 logs and the “Unwashed VRF” value was 3.25 logs. Moreover, the “Washed VRF” value in the data set with BVDV [3] was 1.50 logs.
The like results for `Cc1cc(O)c2c(=O)c3c(O)cc(O)c4c5c(O)cc(O)c6c(=O)c7c(O)cc(C)c8c1c2c(c34)c(c78)c65` [HL-LN, Hypericin] were, in that order, 3.48 log10TCID50/mL, less than 2.34 log10TCID50/mL, more than 4.01 logs, 2.87 logs and more than 1.64 logs.
With `Cc1cc(O)c2c(=O)c3c(O)cc(O)c4c5c(O)cc(O)c6c(=O)c7c(O)cc(C)c8c1c2c(c34)c(c78)c65` [Hypericin], the “impact on cytotoxicity, interference, RBC morphology and integrity” value in the data set with RBC (hypericin 40 μg/mL with CDP-Star 0.1 mM) and in the data set with RBC (hypericin 40 μg/mL with luciferase 0.16 μM) was “very little impact” throughout.
